Data reported in patent US7691601B2, “Medium for detecting and/or identifying of microorganisms” (priority 2003, dated 2010).

Experiments:
[1] = system: Candida dubliniensis; assay: Coloration of Candida dubliniensis colonies on detection medium; format: cell-based; parameters: key: 0=no coloration; 0.5=trace of coloration; 1=weak coloration; 2=strong coloration
Description: (§1) Preparation of the detection medium: A volume of 250 ml of detection medium is prepared from a powdered medium having the following composition:
(§2) Melting is carried out at 100° C., and the medium is autoclaved at 121° C. for 15 minutes. The additives are then added to the medium: Magenta C8 (500 mg/l; B-7102, BIOSYNTH, Staad, Switzerland); X-glucoside (75 mg/l; B-7250, BIOSYNTH, Staad, Switzerland); cefsulodine (10 mg/l; C 4786, Sigma, St Quentin Fallavier, France), and also the esterase inhibitor: • ? O,O-diethyl p-nitrophenyl phosphate: 5 mg/l • ? O,O-dimethyl p-nitrophenyl phosphate: 25 mg/l or • ? O,O-di-(2-chloroethyl)-O-(3-chloro-4-methylcoumarin-7-yl)phosphate: 75 mg/l
(§3) The various selection media thus obtained are then poured into Petri dishes.
(§4) Seeding of yeast of the Candida genus: 10 μl of stools are deposited onto a Petri dish, and this stool suspension is mixed or not mixed with 10 μl of a suspension of Candida and isolated as 3 dials on a Petri dish. Various stools and various strains of Candida genus originating from the applicant's collection are used according to this protocol. The Petri dishes are incubated at 37° C. for 24 hours.
(§5) The appearance of a coloration at the point of deposit of the stool and in the Candida colonies is read according to a semi-quantitative scale: • 0=absence of coloration • 0.5=trace coloration • 1=weak coloration • 2=strong coloration.

[2] = system: free esterases in stools; assay: Coloration at the point of deposit of the stool on Candida detection medium; format: biochemical; parameters: key: 0=no coloration; 0.5=trace of coloration; 1=weak coloration; 2=strong coloration; conditions: Table 4
Description: as §1, §2, §3, §4, §5

[3] = system: free esterases in stools; assay: as above; format: biochemical; parameters: key: 0=absence of coloration; 0.5=trace coloration; 1=weak coloration; 2=strong coloration; conditions: Table 4, no strain
Description: as §1, §2, §3, §4, §5

[4] = system: Salmonella Paratyphi A; assay: Coloration of Salmonella Paratyphi A colonies on detection medium; format: cell-based; parameters: key: 0=no coloration; 0.5=trace of coloration; 1=weak coloration; 2=strong coloration
Description: as §1
Melting is carried out at 100° C., and the medium is autoclaved at 121° C. for 15 minutes. The additives are then added to the medium: Magenta C8 (500 mg/l; B-7102, BIOSYNTH, Staad, Switzerland); X-glucoside (75 mg/l; B-7250, BIOSYNTH, Staad, Switzerland); cefsulodine (10 mg/l; C 4786, Sigma, St Quentin Fallavier, France) and various concentrations of the inhibitor O,O-diethyl p-nitrophenyl phosphate (Paraoxon® ethyl; CAS No. 311-45-5; 36186, Riedel-de Haën, St Quentin Fallavier, France; 0; 1; 5 or 10 mg/l).
The various detection media thus obtained are then poured into Petri dishes.
(§6) Seeding of Salmonella bacteria: 10 μl of stools are deposited onto a Petri dish, this stool suspension is mixed or not mixed with 10 μl of a suspension of Salmonella (0.5 McF) and isolated as 3 dials on a Petri dish. Various […] and various Salmonella strains originating from the applicant's collection are used according to this protocol. The Petri dishes are incubated at 37° C. for 24 hours. The appearance of a coloration at the point of deposit of the stool (“deposit” column) and at the Salmonella colony (“colony” column) is read according to a semi-quantitative scale: • 0=no coloration • 0.5=trace of coloration • 1=weak coloration • 2=strong coloration The results obtained are given in Table 1.
(§7) Preparation of the detection medium: 250 ml of the medium of Example 1, in which the O,O-diethyl p-nitrophenyl phosphate is replaced with various concentrations of O,O-di-(2-chloroethyl)-O-(3-chloro-4-methylcoumarin-7-yl)phosphate (Haloxon®; CAS No. 321-55-1; R276995, Sigma, St Quentin Fallavier, France; 0; 1; 10; 100 or 1000 mg/l), are prepared according to the method of Example 1.
as §3
(§8) Seeding of Salmonella bacteria: The Petri dishes are inoculated, incubated and read as in Example 1.

[5] = system: Candida albicans; assay: Coloration of Candida albicans colonies on detection medium; format: cell-based; parameters: key: 0=no coloration; 0.5=trace of coloration; 1=weak coloration; 2=strong coloration; conditions: stool A
Description: as §1, §2, §3, §4, §5

[6] = system: free esterases in stools; assay: Coloration at the point of deposit of the stool on Candida detection medium; format: biochemical; conditions: summary in words
Description: as §1, §2, §3, §4, §5

[7] = system: Salmonella bacteria; assay: Enzymes originating from the bacteria (Salmonella colonies), overall statement; format: cell-based; conditions: summary in words
Description: as §6, §7, §3, §8

[8] = system: Candida dubliniensis; assay: Coloration of Candida dubliniensis colonies on detection medium; format: cell-based; parameters: key: 0=absence of coloration; 0.5=trace coloration; 1=weak coloration; 2=strong coloration; conditions: Table 4, 5 mg/l
Description: as §1, §2, §3, §4, §5

Cc1c(Cl)c(=O)oc2cc(OP(=O)(OCCCl)OCCCl)ccc12 [O,O-di-(2-chloroethyl)-O-(3-chloro-4-methylcoumarin-7-yl) phosphate]
greatly inhibited: Aspecific enzymatic reactions due to the presence of free enzymes [6]
0: Deposit coloration ([3]; 75 mg/l, stool A) | Deposit coloration ([3]; 75 mg/l, stool B)
2: Colonies coloration ([4]; Table 3, 1 mg/l, stool A) | Colonies coloration ([4]; Table 3, 1 mg/l, stool B) | Colonies coloration ([4]; Table 3, 10 mg/l, stool A) | Colonies coloration ([4]; Table 3, 10 mg/l, stool B)
not inhibited: Enzymes originating from the bacteria [7]
1: Colonies coloration ([1]; Table 4, 75 mg/l, stool A) | Colonies coloration ([1]; Table 4, 75 mg/l, stool B) | Deposit coloration ([2]; 75 mg/l, stool A, Candida albicans) | Deposit coloration ([2]; 75 mg/l, stool A, Candida dubliniensis) | Deposit coloration ([2]; 75 mg/l, stool A, Candida krusei) | Deposit coloration ([2]; 75 mg/l, stool B, Candida albicans) | Deposit coloration ([2]; 75 mg/l, stool B, Candida dubliniensis) | Deposit coloration ([2]; 75 mg/l, stool B, Candida krusei) | Colonies coloration ([4]; Table 3, 100 mg/l, stool A) | Colonies coloration ([4]; Table 3, 100 mg/l, stool B) | Colonies coloration ([5]; Table 4, 75 mg/l)
0.5: Colonies coloration ([4]; Table 3, 1000 mg/l, stool A) | Colonies coloration ([4]; Table 3, 1000 mg/l, stool B)

CCOP(=O)(OCC)Oc1ccc([N+](=O)[O-])cc1 [O,O-diethyl p-nitrophenyl phosphate]
greatly inhibited: Aspecific enzymatic reactions due to the presence of free enzymes [6]
0: Deposit coloration ([3]; 5 mg/l, stool A) | Deposit coloration ([3]; 5 mg/l, stool B)
0.5: Colonies coloration ([8]; stool A) | Colonies coloration ([8]; stool B)
1: Deposit coloration ([2]; 5 mg/l, stool A, Candida albicans) | Deposit coloration ([2]; 5 mg/l, stool A, Candida dubliniensis) | Deposit coloration ([2]; 5 mg/l, stool A, Candida krusei) | Deposit coloration ([2]; 5 mg/l, stool B, Candida albicans) | Deposit coloration ([2]; 5 mg/l, stool B, Candida dubliniensis) | Deposit coloration ([2]; 5 mg/l, stool B, Candida krusei) | Colonies coloration ([4]; Table 1, 1 mg/l, stool A) | Colonies coloration ([4]; Table 1, 1 mg/l, stool B) | Colonies coloration ([4]; Table 1, 5 mg/l, stool A) | Colonies coloration ([4]; Table 1, 5 mg/l, stool B) | Colonies coloration ([4]; Table 1, 10 mg/l, stool A) | Colonies coloration ([4]; Table 1, 10 mg/l, stool B) | Colonies coloration ([5]; Table 4, 5 mg/l)

COP(=O)(OC)Oc1ccc([N+](=O)[O-])cc1 [O,O-dimethyl p-nitrophenyl phosphate]
1: Colonies coloration ([1]; Table 4, 25 mg/l, stool A) | Colonies coloration ([1]; Table 4, 25 mg/l, stool B) | Deposit coloration ([2]; 25 mg/l, stool A, Candida albicans) | Deposit coloration ([2]; 25 mg/l, stool A, Candida dubliniensis) | Deposit coloration ([2]; 25 mg/l, stool A, Candida krusei) | Deposit coloration ([2]; 25 mg/l, stool B, Candida albicans) | Deposit coloration ([2]; 25 mg/l, stool B, Candida dubliniensis) | Deposit coloration ([2]; 25 mg/l, stool B, Candida krusei) | Colonies coloration ([5]; Table 4, 25 mg/l)
greatly inhibited: Aspecific enzymatic reactions due to the presence of free enzymes [6]
0: Deposit coloration ([3]; 25 mg/l, stool A) | Deposit coloration ([3]; 25 mg/l, stool B)
